Laboratory results published in publication PMC12892976, “Alkylation-based optimization of antifungal FPPS inhibitors yields a potent, broad-spectrum lipophilic zoledronate derivative” (mBio, 2025).
Converted amounts (≈) assume the structure as drawn.

Columns and labels:
Cryptococcus tetragattii = assay: MIC broth microdilution (CLSI); type: cell-based; conditions: Cryptococcus tetragattii WM779
Description: (§2) Antifungal susceptibility was determined by broth microdilution according to the CLSI guidelines described in M27-Ed4 ([16]).

Aspergillus felis = assay: checkerboard drug interaction (FICI, MICc); type: cell-based;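 note: simplified diagonal checkerboard screen pairing antifungals with FPPS inhibitors, FICI calculated under the Loewe additivity model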
Description: (§3) Drug interactions between antifungals and FPPS inhibitors were investigated using a simplified checkerboard diagonal screening method ([45]). […] FICIs were determined according to the Loewe additivity model ([17]).

Candida auris [1] = assay: checkerboard drug interaction (FICI, MICc); type: cell-based;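 note: simplified diagonal checkerboard screen pairing antifungals with FPPS inhibitors, with FICI computed under the Loewe additivity model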
Description: as §3

Aspergillus terreus = assay: MIC broth microdilution (CLSI); type: cell-based; conditions: Aspergillus terreus 75-16-089-2500
Description: as §2

Candida auris [2] = assay: MIC broth microdilution (CLSI); type: cell-based; conditions: Candida auris CDC-0384
Description: as §2

Aspergillus lentulus [3] = assay: checkerboard drug interaction (FICI, MICc); type: cell-based;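 note: simplified diagonal checkerboard screen pairing antifungals with FPPS inhibitors, with the interaction index calculated under the Loewe additivity model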
Description: as §3

Rhizopus oryzae = assay: checkerboard drug interaction (FICI, MICc); type: cell-based;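 note: simplified diagonal checkerboard screen pairing antifungals with FPPS inhibitors, FICI calculated under the Loewe additivity model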
Description: as §3

Lomentospora prolificans = assay: checkerboard drug interaction (FICI, MICc);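 note: simplified diagonal checkerboard screen pairing antifungals with FPPS inhibitors, FICI calculated under the Loewe additivity model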
Description: as §3

[4] = test system: Cryptococcus bacillisporus; assay: MIC broth microdilution (CLSI); type: cell-based; conditions: Cryptococcus bacillisporus NIH179
Description: as §2

Streptococcus pneumoniae = assay: antibacterial MIC; type: cell-based
Source text: (§1) […]; Table S3). […]. […] […].

Bacillus subtilis = assay: antibacterial MIC; type: cell-based
Source text: as §1

Staphylococcus aureus = assay: antibacterial MIC; type: cell-based
Source text: as §1

Pseudomonas aeruginosa = assay: antibacterial MIC; type: cell-based
Source text: as §1

[5] = test system: Cryptococcus deneoformans; assay: MIC broth microdilution (CLSI); type: cell-based; conditions: Cryptococcus deneoformans JEC21
Description: as §2

[6] = test system: Trichophyton interdigitale; assay: MIC broth microdilution (CLSI); type: cell-based; conditions: Trichophyton interdigitale R-234
Description: as §2

Aspergillus parafelis [7] = assay: MIC broth microdilution (CLSI); type: cell-based; conditions: Aspergillus parafelis DTO 341-F2
Description: as §2

Candida parapsilosis = assay: MIC broth microdilution (CLSI); type: cell-based; conditions: Candida parapsilosis ATCC 22018
Description: (§4) Antifungal susceptibility was determined by broth microdilution according to the CLSI guidelines described in M27-Ed4 ([16]). […] MFC was determined by back-plating drug-treated cultures from MIC broths onto SDA plates. The MFC was defined as the lowest concentration from which no colonies could be cultured.

Microsporum canis = assay: MIC broth microdilution (CLSI); conditions: Microsporum canis R-232
Description: as §2

Pichia kudriavzevii = assay: MIC broth microdilution (CLSI); type: cell-based; conditions: Pichia kudriavzavii ATCC 6258
Description: as §4

Aspergillus parafelis [8] = assay: checkerboard drug interaction (FICI, MICc);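 note: simplified diagonal checkerboard screen pairing antifungals with FPPS inhibitors, FICI calculated under the Loewe additivity model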
Description: as §3

Candida dubliniensis = assay: checkerboard drug interaction (FICI, MICc); type: cell-based
Description: as §3

[9] = test system: Cryptococcus deneoformans; assay: checkerboard drug interaction (FICI, MICc); type: cell-based
Description: as §3

Trichophyton soudanense = assay: checkerboard drug interaction (FICI, MICc); type: cell-based;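 note: simplified diagonal checkerboard screen pairing antifungals with FPPS inhibitors, FICI computed under the Loewe additivity model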
Description: as §3

Aspergillus lentulus [10] = assay: MIC broth microdilution (CLSI); type: cell-based; conditions: Aspergillus lentulus DTO 341-G7
Description: as §2

Fusarium oxysporum = assay: checkerboard drug interaction (FICI, MICc); type: cell-based
Description: as §3

Cryptococcus gattii = assay: checkerboard drug interaction (FICI, MICc); type: cell-based;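 note: simplified diagonal checkerboard screen pairing antifungals with FPPS inhibitors, FICI computed under the Loewe additivity model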
Description: as §3

O=P(O)(O)C(O)(Cn1ccnc1)P(=O)(O)O [ZOL, zoledronate]
MIC / MEC (Cryptococcus tetragattii): 64 µg/mL (≈ 235 µM) | FICI (Aspergillus felis; 5FC:ZOL): 1.5 | FICI (Aspergillus felis; AMB:ZOL): 2.5 | FICI (Aspergillus felis; CAS:ZOL): 2.5 | FICI (Aspergillus felis; FLC:ZOL): 1.03 | FICI (Aspergillus felis; ITR:ZOL): 0.52 | FICI (Aspergillus felis; KET:ZOL): 0.63 | FICI (Aspergillus felis; VOR:ZOL): 0.38 | bisphosphonate MICc (Aspergillus felis; ZOL with 5FC): 512 | bisphosphonate MICc (Aspergillus felis; ZOL with AMB): 256 | bisphosphonate MICc (Aspergillus felis; ZOL with CAS): 256 | bisphosphonate MICc (Aspergillus felis; ZOL with FLC): 16 | bisphosphonate MICc (Aspergillus felis; ZOL with ITR): 8 | bisphosphonate MICc (Aspergillus felis; ZOL with KET): 64 | bisphosphonate MICc (Aspergillus felis; ZOL with VOR): 64 | FICI (Candida auris [1]; 5FC:ZOL): 1.5 | FICI (Candida auris [1]; AMB:ZOL): 1.13 | FICI (Candida auris [1]; CAS:ZOL): 1.25 | FICI (Candida auris [1]; FLC:ZOL): 0.38 | FICI (Candida auris [1]; ITR:ZOL): 0.63 | FICI (Candida auris [1]; KET:ZOL): 0.5 | FICI (Candida auris [1]; VOR:ZOL): 0.63 | bisphosphonate MICc (Candida auris [1]; ZOL with 5FC): 128 | bisphosphonate MICc (Candida auris [1]; ZOL with AMB): 16 | bisphosphonate MICc (Candida auris [1]; ZOL with CAS): 32 | bisphosphonate MICc (Candida auris [1]; ZOL with FLC): 32 | bisphosphonate MICc (Candida auris [1]; ZOL with ITR): 16 | bisphosphonate MICc (Candida auris [1]; ZOL with KET): 32 | bisphosphonate MICc (Candida auris [1]; ZOL with VOR): 16 | MIC / MEC (Aspergillus terreus): 128 µg/mL (≈ 470 µM) | MIC / MEC (Candida auris [2]): 128 µg/mL (≈ 470 µM) | FICI (Aspergillus lentulus [3]; 5FC:ZOL): 3 | FICI (Aspergillus lentulus [3]; AMB:ZOL): 0.56 | FICI (Aspergillus lentulus [3]; CAS:ZOL): 0.63 | FICI (Aspergillus lentulus [3]; FLC:ZOL): 0.25 | FICI (Aspergillus lentulus [3]; ITR:ZOL): 0.31 | FICI (Aspergillus lentulus [3]; KET:ZOL): 0.38 | FICI (Aspergillus lentulus [3]; VOR:ZOL): 0.63 | bisphosphonate MICc (Aspergillus lentulus [3]; ZOL with 5FC): 512 | bisphosphonate MICc (Aspergillus lentulus [3]; ZOL with AMB): 32 | bisphosphonate MICc (Aspergillus lentulus [3]; ZOL with CAS): 64 | bisphosphonate MICc (Aspergillus lentulus [3]; ZOL with FLC): 2 | bisphosphonate MICc (Aspergillus lentulus [3]; ZOL with ITR): 32 | bisphosphonate MICc (Aspergillus lentulus [3]; ZOL with KET): 64 | bisphosphonate MICc (Aspergillus lentulus [3]; ZOL with VOR): 256 | FICI (Rhizopus oryzae; 5FC:ZOL): 3 | FICI (Rhizopus oryzae; AMB:ZOL): 1.13 | FICI (Rhizopus oryzae; CAS:ZOL): 0.63 | FICI (Rhizopus oryzae; FLC:ZOL): 1 | FICI (Rhizopus oryzae; ITR:ZOL): 1.02 | FICI (Rhizopus oryzae; KET:ZOL): 0.63 | FICI (Rhizopus oryzae; VOR:ZOL): 0.52 | bisphosphonate MICc (Rhizopus oryzae; ZOL with 5FC): 512 | bisphosphonate MICc (Rhizopus oryzae; ZOL with AMB): 64 | bisphosphonate MICc (Rhizopus oryzae; ZOL with CAS): 256 | bisphosphonate MICc (Rhizopus oryzae; ZOL with FLC): 256 | bisphosphonate MICc (Rhizopus oryzae; ZOL with ITR): 8 | bisphosphonate MICc (Rhizopus oryzae; ZOL with KET): 64 | bisphosphonate MICc (Rhizopus oryzae; ZOL with VOR): 8 | FICI (Lomentospora prolificans; 5FC:ZOL): 2.5 | FICI (Lomentospora prolificans; AMB:ZOL): 0.75 | FICI (Lomentospora prolificans; CAS:ZOL): 3 | FICI (Lomentospora prolificans; FLC:ZOL): 1.13 | FICI (Lomentospora prolificans; ITR:ZOL): 0.63 | FICI (Lomentospora prolificans; KET:ZOL): 1 | FICI (Lomentospora prolificans; VOR:ZOL): 1.06 | bisphosphonate MICc (Lomentospora prolificans; ZOL with 5FC): 256 | bisphosphonate MICc (Lomentospora prolificans; ZOL with AMB): 256 | bisphosphonate MICc (Lomentospora prolificans; ZOL with CAS): 512 | bisphosphonate MICc (Lomentospora prolificans; ZOL with FLC): 64 | bisphosphonate MICc (Lomentospora prolificans; ZOL with ITR): 64 | bisphosphonate MICc (Lomentospora prolificans; ZOL with KET): 256 | bisphosphonate MICc (Lomentospora prolificans; ZOL with VOR): 32 | MIC / MEC [4]: 128 µg/mL (≈ 470 µM) | MIC (Streptococcus pneumoniae): > 256 µg/mL | MIC (Bacillus subtilis): 256 µg/mL (≈ 941 µM) | MIC (Staphylococcus aureus): 256 µg/mL (≈ 941 µM) | MIC (Pseudomonas aeruginosa): > 256 µg/mL | MIC / MEC [5]: 128 µg/mL (≈ 470 µM) | MIC / MEC [6]: 256 µg/mL (≈ 941 µM) | MIC / MEC (Aspergillus parafelis [7]): >256 µg/mL | MIC / MEC (Candida parapsilosis): 128 µg/mL (≈ 470 µM) | MIC / MEC (Microsporum canis): 64 µg/mL (≈ 235 µM) | MIC / MEC (Pichia kudriavzevii): 256 µg/mL (≈ 941 µM) | FICI (Aspergillus parafelis [8]; 5FC:ZOL): 2 | FICI (Aspergillus parafelis [8]; AMB:ZOL): 1.13 | FICI (Aspergillus parafelis [8]; CAS:ZOL): 0.56 | FICI (Aspergillus parafelis [8]; FLC:ZOL): 0.5 | FICI (Aspergillus parafelis [8]; ITR:ZOL): 1.06 | FICI (Aspergillus parafelis [8]; KET:ZOL): 2 | FICI (Aspergillus parafelis [8]; VOR:ZOL): 0.5 | bisphosphonate MICc (Aspergillus parafelis [8]; ZOL with 5FC): 512 | bisphosphonate MICc (Aspergillus parafelis [8]; ZOL with AMB): 64 | bisphosphonate MICc (Aspergillus parafelis [8]; ZOL with CAS): 32 | bisphosphonate MICc (Aspergillus parafelis [8]; ZOL with FLC): 2 | bisphosphonate MICc (Aspergillus parafelis [8]; ZOL with ITR): 32 | bisphosphonate MICc (Aspergillus parafelis [8]; ZOL with KET): 512 | bisphosphonate MICc (Aspergillus parafelis [8]; ZOL with VOR): 128 | FICI (Candida dubliniensis; 5FC:ZOL): 0.56 | FICI (Candida dubliniensis; AMB:ZOL): 2 | FICI (Candida dubliniensis; CAS:ZOL): 0.2 | FICI (Candida dubliniensis; FLC:ZOL): 0.42 | FICI (Candida dubliniensis; ITR:ZOL): 0.5 | FICI (Candida dubliniensis; KET:ZOL): 0.38 | FICI (Candida dubliniensis; VOR:ZOL): 0.46 | bisphosphonate MICc (Candida dubliniensis; ZOL with 5FC): 0.25 | bisphosphonate MICc (Candida dubliniensis; ZOL with AMB): 4 | bisphosphonate MICc (Candida dubliniensis; ZOL with CAS): 0.125 | bisphosphonate MICc (Candida dubliniensis; ZOL with FLC): 1 | bisphosphonate MICc (Candida dubliniensis; ZOL with ITR): 1 | bisphosphonate MICc (Candida dubliniensis; ZOL with KET): 1 | bisphosphonate MICc (Candida dubliniensis; ZOL with VOR): 1 | FICI ([9]; 5FC:ZOL): 0.38 | FICI ([9]; AMB:ZOL): 0.63 | FICI ([9]; CAS:ZOL): 1 | FICI ([9]; FLC:ZOL): 0.5 | FICI ([9]; ITR:ZOL): 2.09 | FICI ([9]; KET:ZOL): 0.37 | FICI ([9]; VOR:ZOL): 1.54 | bisphosphonate MICc ([9]; ZOL with 5FC): 16 | bisphosphonate MICc ([9]; ZOL with AMB): 16 | bisphosphonate MICc ([9]; ZOL with CAS): 64 | bisphosphonate MICc ([9]; ZOL with FLC): 32 | bisphosphonate MICc ([9]; ZOL with ITR): 1 | bisphosphonate MICc ([9]; ZOL with KET): 16 | bisphosphonate MICc ([9]; ZOL with VOR): 64 | FICI (Trichophyton soudanense; 5FC:ZOL): 3 | FICI (Trichophyton soudanense; AMB:ZOL): 3 | FICI (Trichophyton soudanense; CAS:ZOL): 3 | FICI (Trichophyton soudanense; FLC:ZOL): 0.75 | FICI (Trichophyton soudanense; ITR:ZOL): 0.75 | FICI (Trichophyton soudanense; KET:ZOL): 0.38 | FICI (Trichophyton soudanense; VOR:ZOL): 0.49 | bisphosphonate MICc (Trichophyton soudanense; ZOL with 5FC): 128 | bisphosphonate MICc (Trichophyton soudanense; ZOL with AMB): 128 | bisphosphonate MICc (Trichophyton soudanense; ZOL with CAS): 64 | bisphosphonate MICc (Trichophyton soudanense; ZOL with FLC): 16 | bisphosphonate MICc (Trichophyton soudanense; ZOL with ITR): 16 | bisphosphonate MICc (Trichophyton soudanense; ZOL with KET): 8 | bisphosphonate MICc (Trichophyton soudanense; ZOL with VOR): 16 | MIC / MEC (Aspergillus lentulus [10]): >256 µg/mL | FICI (Fusarium oxysporum; 5FC:ZOL): ≥4 | FICI (Fusarium oxysporum; AMB:ZOL): 0.63 | FICI (Fusarium oxysporum; CAS:ZOL): 2.5 | FICI (Fusarium oxysporum; FLC:ZOL): 0.75 | FICI (Fusarium oxysporum; ITR:ZOL): 0.5 | FICI (Fusarium oxysporum; KET:ZOL): 0.75 | FICI (Fusarium oxysporum; VOR:ZOL): 1.02 | bisphosphonate MICc (Fusarium oxysporum; ZOL with 5FC): 256 | bisphosphonate MICc (Fusarium oxysporum; ZOL with AMB): 64 | bisphosphonate MICc (Fusarium oxysporum; ZOL with CAS): 256 | bisphosphonate MICc (Fusarium oxysporum; ZOL with FLC): 256 | bisphosphonate MICc (Fusarium oxysporum; ZOL with ITR): 128 | bisphosphonate MICc (Fusarium oxysporum; ZOL with KET): 256 | bisphosphonate MICc (Fusarium oxysporum; ZOL with VOR): 8 | FICI (Cryptococcus gattii; 5FC:ZOL): 1.25 | FICI (Cryptococcus gattii; AMB:ZOL): 1.5 | FICI (Cryptococcus gattii; CAS:ZOL): ≥4 | FICI (Cryptococcus gattii; FLC:ZOL): 0.38 | FICI (Cryptococcus gattii; ITR:ZOL): 0.63 | FICI (Cryptococcus gattii; KET:ZOL): 1.03 | FICI (Cryptococcus gattii; VOR:ZOL): 1.25 | bisphosphonate MICc (Cryptococcus gattii; ZOL with 5FC): 128 | bisphosphonate MICc (Cryptococcus gattii; ZOL with AMB): 64 | bisphosphonate MICc (Cryptococcus gattii; ZOL with CAS): 256 | bisphosphonate MICc (Cryptococcus gattii; ZOL with FLC): 32 | bisphosphonate MICc (Cryptococcus gattii; ZOL with ITR): 16 | bisphosphonate MICc (Cryptococcus gattii; ZOL with KET): 4 | bisphosphonate MICc (Cryptococcus gattii; ZOL with VOR): 32
